Assay results: PMC1968602 (British Journal of Cancer, 1993)
Where “and” joins values, the source holds several entries; their conditions need not be identical. Equal entries are not always repeated. Where two headings read alike, the source gives them in different places.

Experiments:
[1] = tested on: patients with advanced lung cancer
Source text: All subjects gave written informed consent to the study. […] The study was approved in advance by this hospital's Institu- tional Review Board. […] Patients who stabilised or improved received at least a second course while patients with obvious evidence of disease progression were removed from the study. Before the next course was started, the leukocyte count had to be at least 4,000fil-', and the platelet count had to be at least 100,00011-. If more than 6 weeks passed from the time of the last treatment before these criteria were satisfied, the patients were removed from the study. No intrapatient dose escalation was performed. Once the maximum tolerated dose was reached (90 mg m-2), five additional patients were treated at the preceding dose level of 80mgm2. Evaluation The stage of disease was determined by a complete medical history and physical examination, routine chest radiography, whole-lung tomography, bone scintiscanning, computed tomography of the head, chest, and abdomen, and fiberoptic bronchoscopy. Bone marrow aspiration was also performed in SCLC patients. […] Prior to the first course of treatment, a complete blood count (includ- ing a differential white cell count and platelet count), biochemistry tests (renal and hepatic function, and elec- trolytes), and urinalysis were performed. Then the blood count, biochemistry tests, urinalysis, and chest X-rays were repeated at least once a week after this initial evaluation. Other investigations were repeated as necessary to evaluate marker lesions. After the completion of chemotherapy, each patient was restaged with all the tests used during the initial work-up. The eligibility, evaluability and response of each patient were assessed by extramural reviewers. […] The duration of each response was defined as the number of days from the documentation of response until tumour progression. ECOG common toxicity criteria were used to grade organ damage. The maximum tolerated dose was defined as the dose causing grade 3-4 nonhematologic toxicity (except nausea and vomiting) in at least one-third of the cycles and/or grade 3-4 hematologic toxicity in at least two-third of the cycles included at that level. […] The statistical significance of differ- ences in peak plasma concentrations (Cmax) was determined using unpaired, two-tailed Student's t test. Other statistical analysis was performed using Chi-square test or Fisher's exact test. A P value of less than 0.05 was considered to be statistically significant.

[2] = tested on: patients with advanced NSCLC; conditions: ref Masuda et al., 1992b, cited from earlier work
[3] = Plasma pharmacokinetics of CPT-11 and SN-38 (HPLC), day 8 of first cycle
Experimental: (§1) All subjects gave written informed consent to the study. […] No intrapatient dose escalation was performed. […] Bone marrow aspiration was also performed in SCLC patients. […] Arrows indicate the com- pletion of infusion.

advanced lung cancer = assay: Tumour response (World Health Organization criteria) to CPT-11 plus cisplatin; format: in vivo, human
Experimental: as §1

[4] = ref Negoro et al., 1991a, cited from earlier work; for AUC of CPT-11: single agent weekly infusion
[5] = tested on: diarrhea induced by this combination regimen; assay: Antidiarrheal treatment of diarrhea induced by CPT-11 plus cisplatin; format: in vivo, human; conditions: for response of grade 3 diarrhea to antidiarrheal agent: diarrhea at CPT-11 90 mg m-2 plus cisplatin 60 mg m-2
Experimental: as §1

[6] = CPT-11 60 mg m-2 plus cisplatin 60 mg m-2, 3 patients
[7] = CPT-11 80 mg m-2 plus cisplatin 60 mg m-2
[8] = CPT-11 80 mg m-2 plus cisplatin 60 mg m-2, 8 patients
[9] = CPT-11 90 mg m-2 plus cisplatin 60 mg m-2
[10] = CPT-11 plus cisplatin 60 mg m-2, 28-day cycle
[11] = all dose levels, CPT-11 plus cisplatin 60 mg m-2
[12] = dose level 1 (CPT-11 60 mg m-2), individual responders
[13] = dose level 2 (CPT-11 80 mg m-2)
[14] = dose level 3 (CPT-11 90 mg m-2), one responder

CCc1c2c(nc3ccc(OC(=O)N4CCC(N5CCCCC5)CC4)cc13)-c1cc3c(c(=O)n1C2)COC(=O)[C@]3(O)CC [CPT-11, Irinotecan]
Grade 3 leukopenia, percentage of courses ([1]; CPT-11 60 mg m-2 plus cisplatin 60 mg m-2): 33%
ECOG grade 3 or 4 diarrhea: number of patients exhibiting toxicity in the first course [1, 6]: 0
ECOG grade 3 or 4 leukopenia: number of patients exhibiting toxicity in the first course [1, 6]: 2
ECOG grade 3 or 4 diarrhea: no. of courses exhibiting toxicity in all courses ([1]; CPT-11 60 mg m-2 plus cisplatin 60 mg m-2, 9 courses): 0
Grade 3 leukopenia, percentage of courses [1, 7]: 15%
grade 4 diarrhea [1, 7]: no grade 4 diarrhea
ECOG grade 3 or 4 diarrhea: number of patients exhibiting toxicity in the first course [1, 8]: 2
ECOG grade 3 or 4 leukopenia: number of patients exhibiting toxicity in the first course [1, 8]: 2
ECOG grade 3 or 4 diarrhea: no. of courses exhibiting toxicity in all courses ([1]; CPT-11 80 mg m-2 plus cisplatin 60 mg m-2, 20 courses): 3
skin rash (grade 1), number of patients ([1]; CPT-11 80 mg m-2 plus cisplatin 60 mg m-2, forced cessation of CPT-11 on day 15): one
grade 3 diarrhea, percentage of cycles ([1]; CPT-11 80 mg m-2 plus cisplatin 60 mg m-2, three of 20 cycles): 15%
grade 3 diarrhea, percentage of patients ([1]; CPT-11 80 mg m-2 plus cisplatin 60 mg m-2, two of eight patients): 25%
dose-limiting toxicity ([1]; CPT-11 90 mg m-2 dose level plus cisplatin 60 mg m-2): diarrhea
Grade 3 leukopenia, percentage of courses [1, 9]: 0%
duration of grade 3 diarrhea [1, 9]: 2 to 3 weeks
grade 4 diarrhea [1, 9]: no grade 4 diarrhea
ECOG grade 3 or 4 leukopenia: number of patients exhibiting toxicity in the first course ([1]; CPT-11 90 mg m-2 plus cisplatin 60 mg m-2, 3 patients): 0
maximum tolerated dose of CPT-11 ([1]; CPT-11 i.v. days 1, 8, 15 plus cisplatin 60 mg m-2 day 1, every 28 days): 90 mg m-2
leukocyte nadir [1, 10]: ~21 days
recovery from leukocyte nadir in most patients [1, 10]: ≤ 29 days
recommended dose for Phase II studies ([1]; CPT-11 days 1, 8, 15 plus cisplatin day 1 at 4-week intervals): 80 mg m-2
Grade 3 leukopenia, number of patients ([1]; all dose levels, CPT-11 60-90 mg m-2 plus cisplatin 60 mg m-2, 14 patients): five
Grade 3 leukopenia, number of cycles ([1]; all dose levels, CPT-11 60-90 mg m-2 plus cisplatin 60 mg m-2, 33 courses): six
Hematologic toxicity [1, 11]: relatively mild
grade 4 leukopenia, patients [1, 11]: none
hepatic, renal, or pulmonary toxicity [1, 11]: no evidence
Grade 3 nausea and vomiting, percentage of courses ([1]; all dose levels, 10 of 33 courses): 30%
Grade 2 alopecia, percentage of courses ([1]; all dose levels, 15 of 33 courses): 45%
Transient eosinophilia ( > 10%), percentage of courses ([1]; all dose levels, seven of 33 courses): 21%
Grade 3 anaemia, percentage of courses ([1]; all dose levels, two occasions in 33 courses): 6%
response rate ([2]; CPT-11 days 1, 8, 15 combined with 80 mg m-2 cisplatin day 1, 4-week intervals, advanced NSCLC): 54%
dose-limiting toxicities ([2]; combined with 80 mg m-2 cisplatin): leukopenia and diarrhea
recommended dose of CPT-11 ([2]; in combination with 80 mg m-2 of cisplatin, days 1, 8, 15): 60 mg m-2
Elimination of CPT-11 from plasma ([3]; after completion of infusion, two-compartment model): biphasic
patients showing disease progression (advanced lung cancer; all 14 patients): none
patients showing no change (advanced lung cancer; all 14 patients): Eight
overall response rate (advanced lung cancer; all 14 patients, CPT-11 60-90 mg m-2 plus cisplatin 60 mg m-2): 43%
Response duration (advanced lung cancer; [12]): 85 days and 170 days
Time to remission (advanced lung cancer; [12]): 42 days and 44 days
No. of responders (%), response rate (advanced lung cancer; dose level 1: CPT-11 60 mg m-2 plus cisplatin 60 mg m-2, two of three patients): 67%
Response duration, median (range) (advanced lung cancer; [13]): 158 (92-208) days
Time to remission, median (range) (advanced lung cancer; [13]): 41 (30-42) days
No. of responders (%), response rate (advanced lung cancer; dose level 2: CPT-11 80 mg m-2 plus cisplatin 60 mg m-2, three of eight patients): 38%
Response duration (advanced lung cancer; [14]): 98 days
Time to remission (advanced lung cancer; [14]): 30 days
No. of responders (%), response rate (advanced lung cancer; dose level 3: CPT-11 90 mg m-2 plus cisplatin 60 mg m-2, one of three patients): 33%
partial responses (advanced lung cancer; five of 14 patients): 36%
response rate for NSCLC (advanced lung cancer; four of 12 patients): 33%
complete response (advanced lung cancer; one of 14 patients): 7%
complete response, stage IIIB disease (advanced lung cancer; one of seven patients): 14%
overall response rate, stage IIIB disease (advanced lung cancer; seven patients): 43%
partial response, stage IV disease (advanced lung cancer; three of seven patients): 43%
Response duration, median (range) (advanced lung cancer; total, all dose levels): 128 (85-208) days
Time to remission, median (range) (advanced lung cancer; total, all dose levels): 42 (30-44) days
partial responses, stage IIIB disease (advanced lung cancer; two of seven patients): 29%
response rate for SCLC (advanced lung cancer; two of two patients): 100%
AUC of CPT-11 ([4]; 50 mg m-2): 2.97 ytg ml-' x hours
AUC of CPT-11 ([4]; 100 mg m-2): 6.37 ytg ml-' x hours
AUC of CPT-11 ([4]; 125 mg m-2): 9.17 ytg ml-' x hours
AUC of CPT-11 ([4]; 150 mg m-2): 11.29 ytg ml-' x hours
dose intensity achieved as a single agent ([4]; weekly intravenous infusion): 100 mg m-2 per week

CCc1c2c(nc3ccc(O)cc13)-c1cc3c(c(=O)n1C2)COC(=O)[C@]3(O)CC [SN-38, 7-ethyl-10-hydroxycamptothecin]
AUC ([3]; human, in vivo, 80 mg): 216 ng·h/mL
AUC ([3]; human, in vivo, 90 mg): 340 ng·h/mL
SN-38 terminal half-life, mean (s.d.) ([3]; human, in vivo, 90 mg): 22.13 ? 13.28 h
half-life ([3]; human, in vivo, 90 mg): 22.1 ± 13.3 h
AUC of SN-38 ([4]; single-agent CPT-11 50 mg m-2): 117 ng ml-1 x hours
AUC of SN-38 ([4]; single-agent CPT-11 125 mg m-2): 252 ng ml-1 x hours

CN1[C@@H]2CC[C@H]1C[C@@H](OC(=O)C(CO)c1ccccc1)C2 (stereo partly drawn) [atropine]
response of grade 3 diarrhea to antidiarrheal agent [5]: refractory

COc1ccc2c3c1O[C@H]1[C@@H](O)C=C[C@H]4[C@@H](C2)N(C)CC[C@@]341 [codeine phosphate]
response of grade 3 diarrhea to antidiarrheal agent [5]: resistant

CN1[C@@H]2C[C@@H](OC(=O)[C@H](CO)c3ccccc3)C[C@H]1[C@@H]1O[C@@H]12 [scopolamine]
response of grade 3 diarrhea to antidiarrheal agent [5]: refractory

albumin tannate
response of grade 3 diarrhea to antidiarrheal agent [5]: refractory

sandostatin
effect on grade 3 diarrhea induced by CPT-11 plus cisplatin ([5]; 50-100 ug subcutaneously t.i.d. for at least 2 days, three patients): ineffective
